Among the data in US12655150B2 (Cedilla Therapeutics, Inc., priority 2021, dated 2026) are GI50 values, retold here.

Where only a bound is given, the exact number is not on record here.

For this experiment, the system named is NCI-H226. The experiment is described as follows: 72H TEAD Proliferation Assay (Cell Titer Glo 2.0). To be noted: CTG 2.0, cell line not given (NCI-H226 responsive, NCI-H28 non-responsive). The experiment is classed as cell-based. The procedure:
72H TEAD Proliferation Assay.
The effect of TEAD inhibition on cell proliferation was assayed using Cell Titer Glo (CTG) 2.0 to measure response in mesothelioma cell lines NCI-H226 (ATCC, #CRL-5826) and NCI-H28 (ATCC, #CRL-5820).
The 72H TEAD Proliferation assay utilizes Cell Titer-Glo 2.0 (Promega, #G9243) to measure the proliferation of cells in the presence or absence of compound. Cell Titer-Glo 2.0 determines the amount of viable cells by quantifying ATP (an indication of metabolically active cells). It utilizes the conversion of Luciferin to Oxyluciferin and a luminescent signal with the use of ATP to report the quantity of viable cells in culture. Within cells that are continually growing, ATP is being synthesized to meet their metabolic demands, meanwhile the opposite is true for cells that are dying or slowing down their proliferation and either no longer using ATP or are using less, respectively. The NF2-deficient NCI-H226 has been genetically validated as a cell line that is sensitive to TEAD inhibition. The NF2-wild type NCI-H28 has been genetically validated as a cell line that is not sensitive to TEAD inhibition and grows independently of TEAD activity.
Compounds were screened against the responsive NCI-H226 cell line to assess the compounds' ability to inhibit TEAD and cell growth. Compounds were also screened against the non-responsive NCI-H28 cell line to ascertain whether the inhibition of cell growth was due to inhibition of the target TEAD or whether the inhibition was due to off-target cytotoxicity.
• 1) Assay ready plates (ARPs) were prepared by Echo acoustic liquid handler. […] After CTG addition, plates were placed on shaker at 800 RPM for 15 minutes at room temperature and kept in the dark. Luminescence was measured using EnVision multilabel plate reader with ultra-sensitive detection module. • 9) Data Analysis: First background luminescence (no CTG wells) was subtracted from luminescence reading of all wells, then TO luminescence was subtracted from T72 luminescence. To compare anti-proliferative effect of compounds, GI50 was obtained by fitting dose response curves with nonlinear regression curve fit.
On the technique in general: ATP-based viability assays read luminescence as a measure of living cells.

The term GI50 denotes the concentration at which growth is held to half of that of the control.

Take `O=C(O)c1ccc2c(c1)nc(OC1CCC(C(F)(F)F)CC1)c1cccn12` (mixture of isomers) [I-127, 4-((4-(Trifluoromethyl)cyclohexyl)oxy)pyrrolo[1,2-a]quinoxaline-7-carboxylic acid]: the GI50 (Homo sapiens, NCI-H226, 72 h) was 1 to 5 µM.

In turn, `CC(C)(C)c1ccc(-c2nc3cc(S(C)(=N)=O)ccc3n3cccc23)cc1` (single isomer, unassigned) [I-208, (4-(4-(tert-Butyl)phenyl)pyrrolo[1,2-a]quinoxalin-7-yl)(imino)(methyl)-16-sulfanone] registered a GI50 of 1 to 5 µM.

On to `CC(C)(C)c1ccc(-c2nc3cc(S(C)(=N)=O)ccc3n3cccc23)cc1` (single isomer, unassigned) [I-209, (4-(4-(tert-Butyl)phenyl)pyrrolo[1,2-a]quinoxalin-7-yl)(imino)(methyl)-16-sulfanone], for which the GI50 is 5 to 10 µM.

The compound `COc1cc(-c2ccc(C(F)(F)F)cc2)nc2cc(C(=O)NC(CO)C3CCOCC3)ccc12` (single isomer, unassigned) [I-368, N-(2-hydroxy-1-(tetrahydro-2H-pyran-4-yl)ethyl)-4-methoxy-2-(4-(trifluoromethyl)phenyl)quinoline-7-carboxamide] showed a GI50 (Homo sapiens, NCI-H226, 72 h) of 1 to 5 µM.

Under “Homo sapiens, NCI-H226, 72 h”, `COc1cc(-c2ccc(C(F)(F)F)cc2)nc2cc(C(=O)N3CCC3CO)ccc12` (single isomer, unassigned) [I-372, (2-(hydroxymethyl)azetidin-1-yl) (4-methoxy-2-(4-(trifluoromethyl)phenyl)quinolin-7-yl)methanone] gave a GI50 of 1 to 5 µM.

As for `COc1cc(-c2ccc(C(F)(F)F)cc2)nc2cc(C(=O)N3CCC3CO)ccc12` (single isomer, unassigned) [I-373, (2-(hydroxymethyl)azetidin-1-yl) (4-methoxy-2-(4-(trifluoromethyl)phenyl)quinolin-7-yl)methanone], the GI50 is not above 1 µM.

Regarding `CC(C)(C)c1ccc(CCn2ccc3cc(C(=O)O)ccc32)cc1` [Compound I-161], the concentration for 50% growth inhibition (GI50) (Homo sapiens, NCI-H226, 72 h) was more than 10 µM.

The compound `COC(=O)c1ccc2c(c1)nc(-c1ccc(C(C)(C)C)cc1)c1cccn12` [Compound I-164] yielded a GI50 (Homo sapiens, NCI-H226, 72 h) of more than 10 µM.

Regarding `O=C(O)c1ccc2c(c1)nc(NCCCC(F)(F)F)c1cccn12` [I-1, 4-((4,4,4-Trifluorobutyl)amino) pyrrolo[1,2-a]quinoxaline-7-carboxylic acid], the GI50 (Homo sapiens, NCI-H226, 72 h) is more than 10 µM.

In turn, `O=C(O)c1ccc2c(c1)nc(N1CCCCC1)c1cccn12` [I-2, 4-(Piperidin-1-yl)pyrrolo[1,2-a]quinoxaline-7-carboxylic acid] came in with a GI50 (Homo sapiens, NCI-H226, 72 h) of more than 10 µM.

Where the note is “Homo sapiens, NCI-H226, 72 h”, `CC1(C)CCN(c2nc3cc(C(=O)O)ccc3n3cccc23)CC1` [I-3, 4-(4,4-Dimethylpiperidin-1-yl)pyrrolo[1,2-a]quinoxaline-7-carboxylic acid] registered a GI50 of 1 to 5 µM.

`O=C(O)c1ccc2c(c1)nc(N1CCC3(CC1)CC3)c1cccn12` [I-4, 4-(6-Azaspiro[2.5]octan-6-yl)pyrrolo[1,2-a]quinoxaline-7-carboxylic acid] had a GI50 (Homo sapiens, NCI-H226, 72 h) not above 1 µM.

As to `O=C(O)c1ccc2c(c1)nc(N1CCCC(F)(F)C1)c1cccn12` [I-5, 4-(3,3-Difluoropiperidin-1-yl)pyrrolo[1,2-a]quinoxaline-7-carboxylic acid], the GI50 (Homo sapiens, NCI-H226, 72 h) is more than 10 µM.

Take `O=C(O)c1ccc2c(c1)nc(N1CCC3(CCC3)CC1)c1cccn12` [I-6, 4-(7-Azaspiro[3.5]nonan-7-yl)pyrrolo[1,2-a]quinoxaline-7-carboxylic acid]: where the note is “Homo sapiens, NCI-H226, 72 h”, the GI50 is not above 1 µM.

The compound `O=C(O)c1ccc2c(c1)nc(N1CCOCC1)c1cccn12` [I-7, 4-Morpholinopyrrolo[1,2-a]quinoxaline-7-carboxylic acid] gave a GI50 (Homo sapiens, NCI-H226, 72 h) of more than 10 µM.

Where the note is “Homo sapiens, NCI-H226, 72 h”, `O=C(O)c1ccc2c(c1)nc(N1CCC3(CCCC3)CC1)c1cccn12` [I-8, 4-(8-Azaspiro[4.5]decan-8-yl)pyrrolo[1,2-a]quinoxaline-7-carboxylic acid] returned a GI50 not above 1 µM.

Compound `O=C(O)c1ccc2c(c1)nc(N1CCC3(CCCC3)C1)c1cccn12` [I-9, 4-(2-Azaspiro[4.4]nonan-2-yl)pyrrolo[1,2-a]quinoxaline-7-carboxylic acid] came in with a GI50 (Homo sapiens, NCI-H226, 72 h) of 1 to 5 µM.

Compound `O=C(O)c1ccc2c(c1)nc(N1CCC(C(F)(F)F)C1)c1cccn12` (stereo not shown) [I-10, 4-(3-(Trifluoromethyl)pyrrolidin-1-yl)pyrrolo[1,2-a]quinoxaline-7-carboxylic acid] had a GI50 (Homo sapiens, NCI-H226, 72 h) of 1 to 5 µM.

As to `O=C(O)c1ccc2c(c1)nc(N1CCC(F)(F)C1)c1cccn12` [I-11, 4-(3,3-Difluoropyrrolidin-1-yl)pyrrolo[1,2-a]quinoxaline-7-carboxylic acid], the GI50 (Homo sapiens, NCI-H226, 72 h) was more than 10 µM.

In the case of `CC(C)C1CCN(c2nc3cc(C(=O)O)ccc3n3cccc23)CC1` [I-12, 4-(4-Isopropylpiperidin-1-yl)pyrrolo[1,2-a]quinoxaline-7-carboxylic acid], the GI50 (Homo sapiens, NCI-H226, 72 h) lay in the range of 1 to 5 µM.

`O=C(O)c1ccc2c(c1)nc(N1CCC(c3ccccc3)CC1)c1cccn12` [I-13, 4-(4-Phenylpiperidin-1-yl)pyrrolo[1,2-a]quinoxaline-7-carboxylic acid] returned a GI50 (Homo sapiens, NCI-H226, 72 h) of more than 10 µM.

As for `CC(F)(F)C1CCN(c2nc3cc(C(=O)O)ccc3n3cccc23)CC1` [I-14, 4-(4-(1,1-Difluoroethyl)piperidin-1-yl)pyrrolo[1,2-a]quinoxaline-7-carboxylic acid], the GI50 (Homo sapiens, NCI-H226, 72 h) was more than 10 µM.

As for `O=C(O)c1ccc2c(c1)nc(N1CCCC1)c1cccn12` [I-15, 4-(Pyrrolidin-1-yl)pyrrolo[1,2-a]quinoxaline-7-carboxylic acid], the GI50 (Homo sapiens, NCI-H226, 72 h) was more than 10 µM.

Compound `CC1CCN(c2nc3cc(C(=O)O)ccc3n3cccc23)CC1` [I-16, 4-(4-Methylpiperidin-1-yl)pyrrolo[1,2-a]quinoxaline-7-carboxylic acid] returned a concentration for 50% growth inhibition (GI50) (Homo sapiens, NCI-H226, 72 h) of 1 to 5 µM.

As for `O=C(O)c1ccc2c(c1)nc(N1CCC(C(F)F)CC1)c1cccn12` [I-17, 4-(4-(Difluoromethyl)piperidin-1-yl)pyrrolo[1,2-a]quinoxaline-7-carboxylic acid], the GI50 (Homo sapiens, NCI-H226, 72 h) lay in the range of 1 to 5 µM.

Where the note is “Homo sapiens, NCI-H226, 72 h”, `O=C(O)c1ccc2c(c1)nc(NC1CCC(C(F)(F)F)CC1)c1cccn12` (stereo not shown) [I-18, 4-((4-(Trifluoromethyl)cyclohexyl)amino)pyrrolo[1,2-a]quinoxaline-7-carboxylic acid] came in with a GI50 of 1 to 5 µM.

For `O=C(O)c1ccc2c(c1)nc(NC1CCCC(C(F)(F)F)C1)c1cccn12` (stereo not shown) [I-19, 4-((3-(Trifluoromethyl)cyclohexyl)amino)pyrrolo[1,2-a]quinoxaline-7-carboxylic acid], the GI50 (Homo sapiens, NCI-H226, 72 h) fell in the range of 1 to 5 µM.

`CC(C)(C)N1CCN(c2nc3cc(C(=O)O)ccc3n3cccc23)CC1` [I-20, 4-(4-(tert-Butyl)piperazin-1-yl)pyrrolo[1,2-a]quinoxaline-7-carboxylic acid] yielded a GI50 (Homo sapiens, NCI-H226, 72 h) of more than 10 µM.

As for `O=C(O)c1ccc2c(c1)nc(N1CCc3ccccc3C1)c1cccn12` [I-21, 4-(3,4-Dihydroisoquinolin-2(1H)-yl)pyrrolo[1,2-a]quinoxaline-7-carboxylic acid], the GI50 (Homo sapiens, NCI-H226, 72 h) is more than 10 µM.

`CC(C)C12CC(Nc3nc4cc(C(=O)O)ccc4n4cccc34)(C1)C2` [I-22, 4-((3-Isopropylbicyclo[1.1.1]pentan-1-yl)amino)pyrrolo[1,2-a]quinoxaline-7-carboxylic acid] showed a GI50 (Homo sapiens, NCI-H226, 72 h) of 1 to 5 µM.

`O=C(O)c1ccc2c(c1)nc(Oc1ccc(C(F)(F)F)cc1)c1cccn12` [I-23, 4-(4-(Trifluoromethyl)phenoxy) pyrrolo[1,2-a] quinoxaline-7-carboxylic acid] showed a GI50 (Homo sapiens, NCI-H226, 72 h) not above 1 µM.

For `O=C(O)c1ccc2c(c1)nc(Oc1cccc(C(F)(F)F)c1)c1cccn12` [I-24, 4-(3-(Trifluoromethyl)phenoxy) pyrrolo[1,2-a] quinoxaline-7-carboxylic acid], the GI50 (Homo sapiens, NCI-H226, 72 h) fell in the range of 1 to 5 µM.

In turn, `O=C(O)c1ccc2c(c1)nc(N1CCC3(CCCCCC3)C1)c1cccn12` [I-25, 4-(2-Azaspiro[4.6]undecan-2-yl)pyrrolo[1,2-a]quinoxaline-7-carboxylic acid] displayed a 50% growth inhibitory concentration (GI50) (Homo sapiens, NCI-H226, 72 h) of 5 to 10 µM.

As to `O=C(O)c1ccc2c(c1)nc(N1CCC3(CCCOC3)CC1)c1cccn12` [I-26, 4-(2-Oxa-9-azaspiro[5.5]undecan-9-yl)pyrrolo[1,2-a]quinoxaline-7-carboxylic acid], the 50% growth inhibitory concentration (GI50) (Homo sapiens, NCI-H226, 72 h) was in the range of 5 to 10 µM.

Regarding `O=C(O)c1ccc2c(c1)nc(N1CCC3(CCOCC3)CC1)c1cccn12` [I-27, 4-(3-Oxa-9-azaspiro [5.5]undecan-9-yl) pyrrolo[1,2-a] quinoxaline-7-carboxylic acid], where the note is “Homo sapiens, NCI-H226, 72 h”, the GI50 lay within 1 to 5 µM.

For the setting “Homo sapiens, NCI-H226, 72 h”, `O=C(O)c1ccc2c(c1)nc(N1CCC3(CCCCC3)C1)c1cccn12` [I-28, 4-(2-Azaspiro [4.5]decan-2-yl) pyrrolo[1,2-a] quinoxaline-7-carboxylic acid] registered a GI50 of 1 to 5 µM.

In the case of `O=C(O)c1ccc2c(c1)nc(N1CCC3(CC1)COC3)c1cccn12` [I-29, 4-(2-Oxa-7-azaspiro[3.5]nonan-7-yl)pyrrolo[1,2-a]quinoxaline-7-carboxylic acid], the GI50 (Homo sapiens, NCI-H226, 72 h) is more than 10 µM.
